Results reported in patent US20250313635A1, “ANTI-INTEGRIN ANTIBODIES AND USES THEREOF” (Merck Sharp & Dohme LLC, priority 2022, published 2025).
Where two headings read alike, the source gives them in different places.

Columns and labels:
[1] = biological target: T1, mouse αvβ5 (Mus musculus, UniProt O70309+P43406); assay: Cell adhesion assay, CHOK1-mαvβ5 cells on vitronectin; format: cell-based; details: FIG. 11
T1 construct: expressed in transfected cells
Experimental: Cell adhesion assay. For plate preparation, Epic 384-well assay plates (Corning #5040) were washed with OptiMEM™ (Gibco #31985-070) and coated with murine fibronectin (Abcam #ab92784) at a concentration of 0.1 μg/well for CHO-α5KO-mαvβ1 cells; murine vitronectin (Abcam #ab92727) at 0.075 μg/well for CHO-mαvβ3 cells; or murine vitronectin at 0.125 μg/well for CHO-mαvβ5 (all at a volume of 25 μL/well in OptiMEM™), for one hour. Coating solution was then removed by flicking and plates were washed with OptiMEM™ and blocked with 25 μL/well of assay buffer (1% Ovalbumin (Sigma #A5503-10G) in OptiMEM™ containing 1×Pen-Strep (Gibco #15140-148)). A 5-minute baseline reading was taken on a Corning Epica Plate Reader (Model: Epic BT-157900) before removing the assay buffer and adding cells pre-incubated with inhibitors. The Epic™ plate reader detects cellular mass redistribution (adhesion) on the plate surface as a picometer wavelength shift over time. For inhibitor titration preparation: fivefold serial dilutions of small molecule inhibitor MK-0429 or antibody inhibitor Ab-31 were prepared in assay buffer at 4× the final concentration in a 384-well polypropylene plate in a volume of 15 μL per well, starting at a concentration of 800 nM. […]

[2] = test system: experimental diabetic nephropathy model; details: cited from earlier work
[3] = biological target: T2, hαvβ8 (Homo sapiens, UniProt P06756+P26012); assay: Human AlphaLISA integrin-ligand blocking assay (LAP); format: biochemical
T2 construct: The full extracellular domains for all α and β integrin subunits; (GGGS)3 linker (C); acidic coiled-coil with cysteine (C); GG-Avitag (C); hexa-histidine tag (C); basic coiled-coil with cysteine (C); made in house; host or cells: Expi293 cells
T2 sequence (P06756 31-992 limits assumed): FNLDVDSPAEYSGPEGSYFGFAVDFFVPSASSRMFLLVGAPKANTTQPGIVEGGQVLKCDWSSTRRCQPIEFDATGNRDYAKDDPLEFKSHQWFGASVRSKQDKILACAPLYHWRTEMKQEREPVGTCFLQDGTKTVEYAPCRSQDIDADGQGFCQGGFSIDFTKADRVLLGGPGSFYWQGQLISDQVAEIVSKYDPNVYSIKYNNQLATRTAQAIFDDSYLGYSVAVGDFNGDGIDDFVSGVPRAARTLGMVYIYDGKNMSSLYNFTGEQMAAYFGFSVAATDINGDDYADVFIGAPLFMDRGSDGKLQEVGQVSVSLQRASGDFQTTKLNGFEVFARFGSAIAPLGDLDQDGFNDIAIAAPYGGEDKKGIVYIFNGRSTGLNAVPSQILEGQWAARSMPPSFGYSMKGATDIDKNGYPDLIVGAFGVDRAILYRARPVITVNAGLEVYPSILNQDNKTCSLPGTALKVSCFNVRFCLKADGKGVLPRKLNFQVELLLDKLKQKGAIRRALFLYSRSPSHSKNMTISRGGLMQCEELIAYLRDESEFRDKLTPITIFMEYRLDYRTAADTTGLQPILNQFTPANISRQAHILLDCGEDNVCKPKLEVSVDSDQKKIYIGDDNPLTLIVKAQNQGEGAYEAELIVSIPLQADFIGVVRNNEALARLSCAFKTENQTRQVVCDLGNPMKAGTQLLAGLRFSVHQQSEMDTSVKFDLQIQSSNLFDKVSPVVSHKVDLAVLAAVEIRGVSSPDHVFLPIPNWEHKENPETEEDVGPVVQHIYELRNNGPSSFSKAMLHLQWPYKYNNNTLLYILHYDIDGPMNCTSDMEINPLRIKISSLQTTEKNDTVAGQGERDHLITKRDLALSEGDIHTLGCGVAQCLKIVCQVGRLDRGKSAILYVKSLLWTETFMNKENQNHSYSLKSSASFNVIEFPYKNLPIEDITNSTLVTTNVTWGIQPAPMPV
T2 sequence (P26012 43-684 limits assumed): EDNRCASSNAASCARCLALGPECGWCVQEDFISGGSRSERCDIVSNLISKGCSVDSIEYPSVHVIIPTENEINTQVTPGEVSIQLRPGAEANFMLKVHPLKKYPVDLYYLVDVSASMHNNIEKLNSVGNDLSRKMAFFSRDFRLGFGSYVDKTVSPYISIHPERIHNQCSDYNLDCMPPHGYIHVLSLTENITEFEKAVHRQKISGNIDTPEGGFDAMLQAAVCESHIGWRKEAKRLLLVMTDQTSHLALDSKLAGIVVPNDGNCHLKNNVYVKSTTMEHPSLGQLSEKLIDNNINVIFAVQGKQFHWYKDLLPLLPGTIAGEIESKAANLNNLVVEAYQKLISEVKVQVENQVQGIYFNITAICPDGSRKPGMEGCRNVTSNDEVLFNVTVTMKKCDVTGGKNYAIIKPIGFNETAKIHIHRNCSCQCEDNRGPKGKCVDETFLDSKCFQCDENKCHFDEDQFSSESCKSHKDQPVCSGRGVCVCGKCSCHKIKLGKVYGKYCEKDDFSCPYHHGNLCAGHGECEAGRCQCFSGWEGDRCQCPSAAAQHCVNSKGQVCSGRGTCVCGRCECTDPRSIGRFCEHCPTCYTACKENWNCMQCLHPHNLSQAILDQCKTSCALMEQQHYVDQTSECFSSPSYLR
Experimental: Integrin AlphaLISA assay. In the AlphaLISA integrin assays, we used a HEPES based buffer (25 mM HEPES pH 7.4, 137 mM NaCl, 1 mM MgCl2, 1 mM MnCl2, 2 mM CaCl2, 2.7 mM KCl, and 0.05% Tween 20). Optimal assay conditions were determined with a titration of the reagents for signal noise ratio (S/N), linear range, etc. For the respective integrins, we used the final concentrations described in Table 9.
Briefly, the testing antibody (8 μL) was added as a 4×(of Final testing concentration) solution in the HEPES buffer described previously into a 384w AlphaPlate™ (Perkin Elmer #6005350). Then the integrin and ligand were added sequentially as 8×(4 μL each). Plates were sealed and incubated at room temperature for two hours. Then 4×acceptor bead solution ([…]) was added, and the plates were resealed and incubated at room temperature (RT) for one hour. Finally, 4×([…]) donor beads solution was added in a darkened room and incubated for 45 minutes at room temperature. Plates were read on the Envision (Perkin Elmer) in AlphaScreen™ mode within three hours of donor bead addition.

T1 sequence (P43406 31-1044): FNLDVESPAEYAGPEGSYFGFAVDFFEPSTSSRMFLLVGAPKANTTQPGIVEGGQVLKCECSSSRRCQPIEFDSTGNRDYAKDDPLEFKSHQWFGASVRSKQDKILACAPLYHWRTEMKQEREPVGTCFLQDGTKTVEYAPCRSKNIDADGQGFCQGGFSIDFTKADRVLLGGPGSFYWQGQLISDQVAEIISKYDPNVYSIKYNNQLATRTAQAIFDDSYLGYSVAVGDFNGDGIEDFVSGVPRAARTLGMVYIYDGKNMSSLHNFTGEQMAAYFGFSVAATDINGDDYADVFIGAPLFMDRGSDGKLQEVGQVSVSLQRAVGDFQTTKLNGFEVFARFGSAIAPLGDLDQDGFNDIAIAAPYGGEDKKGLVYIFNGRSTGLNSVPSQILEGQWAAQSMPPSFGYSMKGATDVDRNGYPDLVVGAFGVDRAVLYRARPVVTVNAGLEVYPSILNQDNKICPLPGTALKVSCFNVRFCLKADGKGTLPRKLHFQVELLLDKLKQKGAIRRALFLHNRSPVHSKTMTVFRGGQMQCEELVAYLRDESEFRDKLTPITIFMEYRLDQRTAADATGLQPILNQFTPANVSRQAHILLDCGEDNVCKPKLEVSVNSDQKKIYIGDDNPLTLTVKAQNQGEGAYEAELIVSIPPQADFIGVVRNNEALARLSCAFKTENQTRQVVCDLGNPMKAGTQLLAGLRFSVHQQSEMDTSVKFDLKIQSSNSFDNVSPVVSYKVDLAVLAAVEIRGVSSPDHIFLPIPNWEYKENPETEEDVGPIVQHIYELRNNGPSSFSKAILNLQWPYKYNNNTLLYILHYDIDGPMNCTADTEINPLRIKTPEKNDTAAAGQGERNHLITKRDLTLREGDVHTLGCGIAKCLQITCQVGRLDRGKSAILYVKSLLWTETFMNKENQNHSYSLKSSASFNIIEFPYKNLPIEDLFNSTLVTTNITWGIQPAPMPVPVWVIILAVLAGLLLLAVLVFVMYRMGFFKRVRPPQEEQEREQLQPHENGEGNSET
T1 sequence (O70309 24-798): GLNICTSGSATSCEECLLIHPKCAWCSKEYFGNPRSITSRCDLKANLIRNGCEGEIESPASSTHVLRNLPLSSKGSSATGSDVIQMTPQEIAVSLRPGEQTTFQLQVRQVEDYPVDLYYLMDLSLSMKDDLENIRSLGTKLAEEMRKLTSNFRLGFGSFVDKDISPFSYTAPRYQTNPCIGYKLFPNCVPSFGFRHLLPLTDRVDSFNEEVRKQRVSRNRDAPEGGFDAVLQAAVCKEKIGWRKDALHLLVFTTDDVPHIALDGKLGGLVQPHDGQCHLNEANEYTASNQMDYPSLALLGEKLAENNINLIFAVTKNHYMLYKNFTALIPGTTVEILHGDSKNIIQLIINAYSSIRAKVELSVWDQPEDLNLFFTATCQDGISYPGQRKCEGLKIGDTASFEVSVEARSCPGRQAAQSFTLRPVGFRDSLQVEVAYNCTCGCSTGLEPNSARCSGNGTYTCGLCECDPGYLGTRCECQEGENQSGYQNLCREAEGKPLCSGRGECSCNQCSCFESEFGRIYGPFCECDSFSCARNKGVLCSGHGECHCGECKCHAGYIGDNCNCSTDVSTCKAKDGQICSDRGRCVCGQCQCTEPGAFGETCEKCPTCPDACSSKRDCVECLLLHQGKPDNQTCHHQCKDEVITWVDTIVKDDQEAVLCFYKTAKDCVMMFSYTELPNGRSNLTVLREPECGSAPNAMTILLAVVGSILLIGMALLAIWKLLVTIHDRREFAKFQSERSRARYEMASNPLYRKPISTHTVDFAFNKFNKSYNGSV

cell adhesion of mouse αvβ5 on a vitronectin matrix [1]: decreased | IC50 ([3]; FIG. 3D, curve-fitted, read-out: IC50 against human αvβ1 (as printed, fifth integrin listed), AlphaLISA): 58.3 nM | IC50 ([3]; Table 11, read-out: IC50 Human integrin AlphaLISA assays hαvβ8): 3.1 nM
SMILES: COc1ccc([C@H](CC(=O)O)N2CCN(CCCc3ccc4c(n3)NCCC4)C2=O)cn1 [MK-0429, (3S)-3-(6-methoxypyridin-3-yl)-3-[2-oxo-3-[3-(5,6,7,8-tetrahydro-1,8-naphthyridin-2-yl)propyl]imidazolidin-1-yl]propanoic acid]
proteinuria [2]: reduces | renal fibrosis [2]: reduces
